Measurements published in PubChem BioAssay (NCI).
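Step 1: Grow cells in 96-well plates. Step 2: Expose to compound for 48 hours at 5 concentrations. Step 3: Interpolate endpoints linearly; if unreached, use highest concentration. At the TGI there is no net growth.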

What was measured:
Assay in all cases: growth of human tumour cells (NCI), 48 h
HOP-92 NSCLC = tested on: HOP-92 NSCLC
K-562 leukemia = tested on: K-562 leukemia
CCRF-CEM leukemia = tested on: CCRF-CEM leukemia
MOLT-4 leukemia = tested on: MOLT-4 leukemia
SK-MEL-28 melanoma = tested on: SK-MEL-28 melanoma
SR leukemia = tested on: SR leukemia
HS 578T breast = tested on: HS 578T breast
SF-539 CNS = tested on: SF-539 CNS
IGROV1 ovarian = tested on: IGROV1 ovarian
HOP-62 NSCLC = tested on: HOP-62 NSCLC
SNB-75 CNS = tested on: SNB-75 CNS
OVCAR-5 ovarian = tested on: OVCAR-5 ovarian
UO-31 renal = tested on: UO-31 renal
M14 melanoma = tested on: M14 melanoma
786-0 renal = tested on: 786-0 renal
CAKI-1 renal = tested on: CAKI-1 renal
NCI-H23 lung = tested on: NCI-H23 lung
TK-10 renal = tested on: TK-10 renal
HL-60(TB) leukemia = tested on: HL-60(TB) leukemia
DU-145 prostate = tested on: DU-145 prostate
SK-MEL-5 melanoma = tested on: SK-MEL-5 melanoma
RXF 393 renal = tested on: RXF 393 renal
KM12 colon = tested on: KM12 colon
NCI-H460 lung = tested on: NCI-H460 lung
HCT-15 colon = tested on: HCT-15 colon
PC-3 prostate = tested on: PC-3 prostate
U251 CNS = tested on: U251 CNS
SK-OV-3 ovarian = tested on: SK-OV-3 ovarian
HCT-116 colon = tested on: HCT-116 colon
SF-295 CNS = tested on: SF-295 CNS
EKVX NSCLC = tested on: EKVX NSCLC
NCI/ADR-RES ovarian = tested on: NCI/ADR-RES ovarian
MDA-N = tested on: MDA-N
A549 NSCLC = tested on: A549 NSCLC
BT-549 breast = tested on: BT-549 breast
MDA-MB-435 = tested on: MDA-MB-435
LOX IMVI melanoma = tested on: LOX IMVI melanoma
HCC-2998 colon = tested on: HCC-2998 colon
T-47D breast = tested on: T-47D breast
SF-268 CNS = tested on: SF-268 CNS
SW-620 colon = tested on: SW-620 colon
SNB-19 CNS = tested on: SNB-19 CNS
UACC-257 melanoma = tested on: UACC-257 melanoma
OVCAR-4 ovarian = tested on: OVCAR-4 ovarian
COLO 205 colon = tested on: COLO 205 colon
MDA-MB-231 breast = tested on: MDA-MB-231 breast
UACC-62 melanoma = tested on: UACC-62 melanoma
RPMI-8226 leukemia = tested on: RPMI-8226 leukemia
SN12C renal = tested on: SN12C renal
A498 renal = tested on: A498 renal
OVCAR-3 ovarian = tested on: OVCAR-3 ovarian
MCF7 breast = tested on: MCF7 breast
ACHN renal = tested on: ACHN renal
NCI-H522 lung = tested on: NCI-H522 lung
SK-MEL-2 melanoma = tested on: SK-MEL-2 melanoma
HT29 colon = tested on: HT29 colon
OVCAR-8 ovarian = tested on: OVCAR-8 ovarian
NCI-H226 lung = tested on: NCI-H226 lung

Clc1cccc(Cl)c1C1SCC2=Nc3ccccc3CN21 (configuration not stated)
TGI (HOP-92 NSCLC): > 100 µM
TGI (K-562 leukemia): > 100 µM
TGI (CCRF-CEM leukemia): > 100 µM
TGI (MOLT-4 leukemia): > 100 µM
TGI (SK-MEL-28 melanoma): 91.2 µM
TGI (SR leukemia): > 100 µM
TGI (HS 578T breast): 62.2 µM
TGI (SF-539 CNS): 32.9 µM
TGI (IGROV1 ovarian): 62.5 µM
TGI (HOP-62 NSCLC): 48.9 µM
TGI (SNB-75 CNS): > 100 µM
TGI (OVCAR-5 ovarian): > 100 µM
TGI (UO-31 renal): 43.2 µM
TGI (M14 melanoma): 48.1 µM
TGI (786-0 renal): 32.4 µM
TGI (CAKI-1 renal): > 100 µM
TGI (NCI-H23 lung): 34.7 µM
TGI (TK-10 renal): > 100 µM
TGI (HL-60(TB) leukemia): > 100 µM
TGI (DU-145 prostate): 68.4 µM
TGI (SK-MEL-5 melanoma): 29.2 µM
TGI (RXF 393 renal): 56.6 µM
TGI (KM12 colon): 48.1 µM
TGI (NCI-H460 lung): > 100 µM
TGI (HCT-15 colon): > 100 µM
TGI (PC-3 prostate): 52.4 µM
TGI (U251 CNS): > 100 µM
TGI (SK-OV-3 ovarian): 50.6 µM
TGI (HCT-116 colon): 25.7 µM
TGI (SF-295 CNS): 33.8 µM
TGI (EKVX NSCLC): 73.6 µM
TGI (NCI/ADR-RES ovarian): 40 µM
TGI (MDA-N): > 100 µM
TGI (A549 NSCLC): 56.5 µM
TGI (BT-549 breast): > 100 µM
TGI (MDA-MB-435): > 100 µM
TGI (LOX IMVI melanoma): 41.1 µM
TGI (HCC-2998 colon): > 100 µM
TGI (T-47D breast): 85.1 µM
TGI (SF-268 CNS): > 100 µM
TGI (SW-620 colon): > 100 µM
TGI (SNB-19 CNS): 25.8 µM
TGI (UACC-257 melanoma): > 100 µM
TGI (OVCAR-4 ovarian): > 100 µM
TGI (COLO 205 colon): 27 µM
TGI (MDA-MB-231 breast): > 100 µM
TGI (UACC-62 melanoma): > 100 µM
TGI (RPMI-8226 leukemia): > 100 µM
TGI (SN12C renal): > 100 µM
TGI (A498 renal): > 100 µM
TGI (OVCAR-3 ovarian): 29.5 µM
TGI (MCF7 breast): 52.7 µM

O=P(O)(O)CN1CCN(CP(=O)(O)O)CCN(CP(=O)(O)O)CCN(CP(=O)(O)O)CC1
TGI (HOP-92 NSCLC): > 100 µM
TGI (K-562 leukemia): > 100 µM
TGI (CCRF-CEM leukemia): > 100 µM
TGI (MOLT-4 leukemia): > 100 µM
TGI (SR leukemia): 95.9 µM
TGI (HS 578T breast): > 100 µM
TGI (SF-539 CNS): > 100 µM
TGI (IGROV1 ovarian): > 100 µM
TGI (HOP-62 NSCLC): > 100 µM
TGI (SNB-75 CNS): > 100 µM
TGI (ACHN renal): > 100 µM
TGI (OVCAR-5 ovarian): > 100 µM
TGI (UO-31 renal): > 100 µM
TGI (M14 melanoma): > 100 µM
TGI (786-0 renal): > 100 µM
TGI (CAKI-1 renal): > 100 µM
TGI (NCI-H23 lung): > 100 µM
TGI (NCI-H522 lung): > 100 µM
TGI (TK-10 renal): > 100 µM
TGI (HL-60(TB) leukemia): 72.4 µM
TGI (DU-145 prostate): > 100 µM
TGI (RXF 393 renal): > 100 µM
TGI (KM12 colon): > 100 µM
TGI (NCI-H460 lung): > 100 µM
TGI (HCT-15 colon): 77.7 µM
TGI (PC-3 prostate): > 100 µM
TGI (SK-MEL-2 melanoma): > 100 µM
TGI (U251 CNS): > 100 µM
TGI (HCT-116 colon): > 100 µM
TGI (HT29 colon): > 100 µM
TGI (SF-295 CNS): > 100 µM
TGI (EKVX NSCLC): > 100 µM
TGI (NCI/ADR-RES ovarian): > 100 µM
TGI (MDA-N): > 100 µM
TGI (A549 NSCLC): > 100 µM
TGI (BT-549 breast): > 100 µM
TGI (MDA-MB-435): > 100 µM
TGI (LOX IMVI melanoma): > 100 µM
TGI (HCC-2998 colon): > 100 µM
TGI (T-47D breast): > 100 µM
TGI (SF-268 CNS): > 100 µM
TGI (SW-620 colon): > 100 µM
TGI (SNB-19 CNS): > 100 µM
TGI (UACC-257 melanoma): > 100 µM
TGI (OVCAR-8 ovarian): > 100 µM
TGI (OVCAR-4 ovarian): > 100 µM
TGI (COLO 205 colon): > 100 µM
TGI (MDA-MB-231 breast): > 100 µM
TGI (UACC-62 melanoma): > 100 µM
TGI (RPMI-8226 leukemia): 93.5 µM
TGI (SN12C renal): > 100 µM
TGI (A498 renal): > 100 µM
TGI (NCI-H226 lung): > 100 µM
TGI (OVCAR-3 ovarian): > 100 µM
TGI (MCF7 breast): > 100 µM
